From ChEMBL document CHEMBL5120822, “Inhibition of the P2X7/NLRP3 Inflammasome Signaling Pathway by Deacetylgedunin from Toona sinensis” (J Nat Prod, 2022)
pIC50: −log10 of the molar value. Activity calls are given as the source filed them. The calls are words filed in the database; no cut-off is given here.

Assays:
RAW264.7 [1] = test: Cytotoxicity against mouse RAW264.7 cells derived macrophage assessed as reduction in cell viability upto 40 uM incubated for 24 hrs by CCK-8 assay; format: toxicity, cell-based; conditions: raw264.7, 24 h
THP-1 [2] = test: Cytotoxicity against human THP-1 cells derived macrophage assessed as reduction in cell viability upto 40 uM incubated for 24 hrs by CCK-8 assay; format: toxicity, cell-based; conditions: thp-1, 24 h
RAW264.7 [3] = test: Antiinflammatory activity in mouse RAW264.7 assessed as inhibition of LPS-induced NO production incubated for 1 hrs followed by LPS stimulation for 18 hrs by Griess reagent based assay; format: functional, cell-based
THP-1 [4] = test: Antiinflammatory activity against PMA-differentiated human THP-1 cells assessed as reduction in IL-1beta level at 20 uM incubated for 1 hrs followed by LPS stimulation for 12 hrs and ATP addition for 0.5 hrs by ELISA; format: functional, cell-based; conditions: time 13.5 hrs

| SMILES | Activity (RAW264.7 [1]) | Activity (THP-1 [2]) | pIC50 (RAW264.7 [3]) | Activity (THP-1 [4]) |
| --- | --- | --- | --- | --- |
| CC1(C)C(=O)C=C[C@]2(C)[C@H]3CC[C@@]4(C)[C@H](c5ccoc5)OC(=O)[C@H]5O[C@]54[C@]3(C)C(=O)C[C@@H]12 [DEACETOXY-7-OXOGEDUNIN] | Toxic | Toxic | 5.02 | Active |
| CNC(=N)NCCC[C@H](N)C(=O)O [TILARGININE] |  |  | 4.35 |  |
